Structures are written as SMILES.

The test system of one assay is P388 Leukemia. The experiment in a line: Antitumor activity against P388 leukemia in mice (increased life span). Format: in vivo, CDF1 mice. As to conditions: Mus musculus, P388, ip, 720 h, read-out: ILS (increased life span). On the procedure:
Ascites were collected from the abdominal cavity of P388 ascites tumor-bearing cancer mice (DBA/2) on the 7th day after transplantation. A number of P388 cells in the ascites was counted, and a tumor cell floating liquid of 5×10^6 cells/ml was prepared using a physiological saline solution. Then, 0.2 ml of the solution containing 1×10^6 cells was transplanted into the abdominal cavity of CDF1 mice having a body weight of from 20 to 25 g.
The effect of the test compound was determined in terms of the ratio of average survival days of the group administered with the test compound to average survival days of the control group (non-medicated group) (i.e., an increased life span, ILS%).
Consider `C/C1=C\C(O)C(=NOCc2ccccc2)/C=C/C=C\c2csc(n2)C(C)N2C(=O)CC(C(C)(O)C(=O)SCc3oc(=O)oc3C)(CC1)[S+]2[O-]` (single isomer, unassigned) [Compound 73], for which the ILS at 4 mg/kg was 43%.
Consider `C/C1=C\C(O)C(=O)/C=C/C=C\c2csc(n2)C(C)N2C(=O)CC(C(C)(O)C(=O)SCOC(=O)C(C)(C)C)(CC1)[S+]2[O-]` (stereo not drawn) [Compound 34], for which the ILS at 2 mg/kg turned out to be 48%.
As for `C/C1=C\C(O)C(=O)/C=C/C=C\c2csc(n2)C(C)N2C(=O)CC(C(C)(O)C(=O)SCc3oc(=O)oc3C)(CC1)[S+]2[O-]` (stereo not drawn) [Compound 35], the ILS at 2 mg/kg was 65%.
Turning to `C/C1=C\C(OC(=O)C2CCCCC2)C(=O)/C=C/C=C\c2csc(n2)C(C)N2C(=O)CC(C(C)(O)C(=O)SCc3oc(=O)oc3C)(CC1)[S+]2[O-]` (stereo not drawn) [Compound 48], the ILS at 8 mg/kg came out at 47%.
Turning to `C/C1=C\C(OC(=O)Oc2ccccc2)C(=O)/C=C/C=C\c2csc(n2)C(C)N2C(=O)CC(C(C)(O)C(=O)SCc3oc(=O)oc3C)(CC1)[S+]2[O-]` (stereo not drawn) [Compound 55], the ILS at 1 mg/kg came to 40%.
As to `C/C1=C\C(OC(=O)OCc2ccccc2)C(=O)/C=C/C=C\c2csc(n2)C(C)N2C(=O)CC(C(C)(O)C(=O)SCc3oc(=O)oc3C)(CC1)[S+]2[O-]` (stereo not drawn) [Compound 56], the ILS at 1 mg/kg stood at 63%.
For the compound `C/C1=C\C(OC(=O)OCC2c3ccccc3-c3ccccc32)C(=O)/C=C/C=C\c2csc(n2)C(C)N2C(=O)CC(C(C)(O)C(=O)SCc3oc(=O)oc3C)(CC1)[S+]2[O-]` (stereo not drawn) [Compound 57], the ILS at 4 mg/kg was 53%.
The same measure, in the same setting: the result for `COC1(OC2C=C(C)CCC3(C(C)(O)C(=O)SCc4oc(=O)oc4C)CC(=O)N(C(C)c4nc(cs4)C=CC=CC2=O)[S+]3[O-])CC[S+]([O-])CC1` (stereo not drawn) [Compound 128] reads 84%.
As to `CC1=CC(OC(=O)[C@H](C)NC(=O)OCc2ccccc2)C(=O)C=CC=Cc2csc(n2)C(C)N2C(=O)CC(C(C)(O)C(=O)SCc3oc(=O)oc3C)(CC1)[S+]2[O-]` (stereo partly drawn) [Compound 163], the ILS at 2 mg/kg came out at 46%.

Still in this assay, the particulars now being: Mus musculus, P388, ip, 720 h; 1.0 mg/kg, single i.p. 24 hours after transplantation, CDF1 mice, 30 days observation; read-out: ILS (increased life span).
For `C/C1=C\C(OC(=O)Oc2ccccc2)C(=O)/C=C/C=C\c2csc(n2)C(C)NC(=O)CC2(CC1)[S+]([O-])SC(=O)C2(C)O` (stereo not drawn) [Compound 12], the ILS at 1 mg/kg is 44%.
The same measure, in the same setting: then `C/C1=C\C(OC(=O)OCc2ccccc2)C(=O)/C=C/C=C\c2csc(n2)C(C)NC(=O)CC2(CC1)[S+]([O-])SC(=O)C2(C)O` (stereo not drawn) [Compound 14], with 42%; and `COC1(OC2C=C(C)CCC3(C(C)(O)C(=O)SCc4oc(=O)oc4C)CC(=O)N(C(C)c4nc(cs4)C=CC=CC2=O)[S+]3[O-])CCS(=O)(=O)CC1` (stereo not drawn) [Compound 129], with 64%.

The same assay, now with this note: Mus musculus, P388, ip, 720 h; 2.0 mg/kg, single i.p. 24 hours after transplantation, CDF1 mice, 30 days observation; read-out: ILS (increased life span).
For the compound `C/C1=C\C(OC(=O)c2cnc3ccccc3n2)C(=O)/C=C/C=C\c2csc(n2)C(C)NC(=O)CC2(CC1)[S+]([O-])SC(=O)C2(C)O` (stereo not drawn) [Compound 9], the ILS at 2 mg/kg amounted to 44%.
The same measure, in the same setting: then `C/C1=C\C(OC(=O)OCC(C)C)C(=O)/C=C/C=C\c2csc(n2)C(C)NC(=O)CC2(CC1)[S+]([O-])SC(=O)C2(C)O` (stereo not drawn) [Compound 11], with 50%; and `CCOC(=O)OC1/C=C(\C)CCC2(C(C)(O)C(=O)SCOC(=O)C(C)(C)C)CC(=O)N(C(C)c3nc(cs3)/C=C\C=C\C1=O)[S+]2[O-]` (stereo not drawn) [Compound 41], with 40%; and `CCOC(=O)OC1/C=C(\C)CCC2(C(C)(O)C(=O)SCc3oc(=O)oc3C)CC(=O)N(C(C)c3nc(cs3)/C=C\C=C\C1=O)[S+]2[O-]` (stereo not drawn) [Compound 53], with 43%.
Same read-out and setting: then `C/C1=C\C(OC(=O)CNC(=O)OC(C)(C)C)C(=O)/C=C/C=C\c2csc(n2)C(C)NC(=O)CC2(CC1)[S+]([O-])SC(=O)C2(C)O` (stereo not drawn) [Compound 96], with 46%.
Same read-out and setting: then `CC1=CC(OC(=O)c2cccnc2)C(=O)C=CC=Cc2csc(n2)C(C)N2C(=O)CC(C(C)(O)C(=O)SCc3oc(=O)oc3C)(CC1)[S+]2[O-]` (stereo not drawn) [Compound 144], with 49%; and `CC1=CC(OC(=O)Cc2cccnc2)C(=O)C=CC=Cc2csc(n2)C(C)N2C(=O)CC(C(C)(O)C(=O)SCc3oc(=O)oc3C)(CC1)[S+]2[O-]` (stereo not drawn) [Compound 147], with 60%.
Take `CC1=CC(OC(=O)CO)C(=O)C=CC=Cc2csc(n2)C(C)N2C(=O)CC(C(C)(O)C(=O)SCc3oc(=O)oc3C)(CC1)[S+]2[O-]` (stereo not drawn) [Compound 154]: the ILS at 2 mg/kg turned out to be 48%.

The assay is the same for the next values; noted with them: Mus musculus, P388, ip, 720 h; 4.0 mg/kg, single i.p. 24 hours after transplantation, CDF1 mice, 30 days observation; read-out: ILS (increased life span).
Take `C/C1=C\C(OC(=O)CN(C)C(=O)OCc2ccccc2)C(=O)/C=C/C=C\c2csc(n2)C(C)NC(=O)CC2(CC1)[S+]([O-])SC(=O)C2(C)O` (stereo not drawn) [Compound 101]: the increase in lifespan (ILS) at 4 mg/kg is 48%.
The same measure, in the same setting: the result for `C/C1=C\C(OC(=O)[C@H](C)NC(=O)OC(C)(C)C)C(=O)/C=C/C=C\c2csc(n2)C(C)NC(=O)CC2(CC1)[S+]([O-])SC(=O)C2(C)O` (stereo partly drawn) [Compound 102] reads 49%; that for `C/C1=C\C(OC(=O)CCNC(=O)OCc2ccccc2)C(=O)/C=C/C=C\c2csc(n2)C(C)NC(=O)CC2(CC1)[S+]([O-])SC(=O)C2(C)O` (stereo not drawn) [Compound 105], 53%.
In the case of `CC1=CC(OC(=O)C2CCC(=O)N2)C(=O)C=CC=Cc2csc(n2)C(C)N2C(=O)CC(C(C)(O)C(=O)SCc3oc(=O)oc3C)(CC1)[S+]2[O-]` (stereo not drawn) [Compound 149], the ILS at 4 mg/kg is 55%.
The same measure, in the same setting: the result for `CC(=O)NCC(=O)OC1C=C(C)CCC2(C(C)(O)C(=O)SCc3oc(=O)oc3C)CC(=O)N(C(C)c3nc(cs3)C=CC=CC1=O)[S+]2[O-]` (stereo not drawn) [Compound 160] reads 62%.
Same read-out and setting: then `CC1=CC(OC(=O)CN(C)C(=O)OC(C)(C)C)C(=O)C=CC=Cc2csc(n2)C(C)N2C(=O)CC(C(C)(O)C(=O)SCc3oc(=O)oc3C)(CC1)[S+]2[O-]` (stereo not drawn) [Compound 161], with 65%.
As to `CC1=CC(OC(=O)CNC(=O)[C@H](C)NC(=O)OCc2ccccc2)C(=O)C=CC=Cc2csc(n2)C(C)N2C(=O)CC(C(C)(O)C(=O)SCc3oc(=O)oc3C)(CC1)[S+]2[O-]` (stereo partly drawn) [Compound 168], the ILS at 4 mg/kg came out at 58%.

The same assay, now with this note: Mus musculus, P388, ip, 720 h; 8.0 mg/kg, single i.p. 24 hours after transplantation, CDF1 mice, 30 days observation; read-out: ILS (increased life span).
Regarding `COC1(OC2/C=C(\C)CCC3(CC(=O)NC(C)c4nc(cs4)/C=C\C=C\C2=O)[S+]([O-])SC(=O)C3(C)O)CCCCC1` (stereo not drawn) [Compound 91], the ILS at 8 mg/kg amounted to 48%.
Still for that read-out and setting: the result for `COC1(OC2/C=C(\C)CCC3(CC(=O)NC(C)c4nc(cs4)/C=C\C=C\C2=O)[S+]([O-])SC(=O)C3(C)O)CCSCC1` (stereo not drawn) [Compound 92] reads 48%; that for `C/C1=C\C(OC(=O)CNC(=O)[C@H](C)NC(=O)OCc2ccccc2)C(=O)/C=C/C=C\c2csc(n2)C(C)NC(=O)CC2(CC1)[S+]([O-])SC(=O)C2(C)O` (stereo partly drawn) [Compound 110], 58%; that for `C/C1=C\C(OC(=O)CNC(=O)CCNC(=O)OC(C)(C)C)C(=O)/C=C/C=C\c2csc(n2)C(C)NC(=O)CC2(CC1)[S+]([O-])SC(=O)C2(C)O` (stereo not drawn) [Compound 112], 67%.
The same measure, in the same setting: then `C/C1=C\C(OC(=O)CNC(=O)C(CC(C)C)NC(=O)OCc2ccccc2)C(=O)/C=C/C=C\c2csc(n2)C(C)NC(=O)CC2(CC1)[S+]([O-])SC(=O)C2(C)O` (stereo not drawn) [Compound 115], with 67%; and `COC1(OC2C=C(C)CCC3(C(C)(O)C(=O)SCc4oc(=O)oc4C)CC(=O)N(C(C)c4nc(cs4)C=CC=CC2=O)[S+]3[O-])CCN(c2ccccc2)CC1` (stereo not drawn) [Compound 131], with 60%.
The same measure, in the same setting: then `CC1=CC(OC(=O)[C@@H]2CCCN2C(=O)OC(C)(C)C)C(=O)C=CC=Cc2csc(n2)C(C)N2C(=O)CC(C(C)(O)C(=O)SCc3oc(=O)oc3C)(CC1)[S+]2[O-]` (stereo partly drawn) [Compound 148], with 49%.
Consider `CC1=CC(OC(=O)CNC(=O)OCc2ccccc2)C(=O)C=CC=Cc2csc(n2)C(C)N2C(=O)CC(C(C)(O)C(=O)SCc3oc(=O)oc3C)(CC1)[S+]2[O-]` (stereo not drawn) [Compound 157], for which the ILS at 8 mg/kg is 98%.
For the compound `CC1=CC(OC(=O)CNC=O)C(=O)C=CC=Cc2csc(n2)C(C)N2C(=O)CC(C(C)(O)C(=O)SCc3oc(=O)oc3C)(CC1)[S+]2[O-]` (stereo not drawn) [Compound 159], the ILS at 8 mg/kg was found to be 50%.
The same measure, in the same setting: the result for `CC1=CC(OC(=O)CN(C)C(=O)OCc2ccccc2)C(=O)C=CC=Cc2csc(n2)C(C)N2C(=O)CC(C(C)(O)C(=O)SCc3oc(=O)oc3C)(CC1)[S+]2[O-]` (stereo not drawn) [Compound 162] reads 57%; that for `CC1=CC(OC(=O)CNC(=O)CNC(=O)OCc2ccccc2)C(=O)C=CC=Cc2csc(n2)C(C)N2C(=O)CC(C(C)(O)C(=O)SCc3oc(=O)oc3C)(CC1)[S+]2[O-]` (stereo not drawn) [Compound 166], 64%.

Staying with this assay, now noted: Mus musculus, P388, ip, 720 h; 16 mg/kg, single i.p. 24 hours after transplantation, CDF1 mice, 30 days observation.
In the case of `C/C1=C\C(OC(=O)CNC(=O)CCCNC(=O)OCc2ccccc2)C(=O)/C=C/C=C\c2csc(n2)C(C)NC(=O)CC2(CC1)[S+]([O-])SC(=O)C2(C)O` (stereo not drawn) [Compound 113], the ILS at 16 mg/kg was found to be 58%.
Same read-out and setting: the result for `C/C1=C\C(OC(=O)CCNC(=O)CNC(=O)OCc2ccccc2)C(=O)/C=C/C=C\c2csc(n2)C(C)NC(=O)CC2(CC1)[S+]([O-])SC(=O)C2(C)O` (stereo not drawn) [Compound 118] reads 71%; that for `C/C1=C\C(OC(=O)CCNC(=O)CCNC(=O)OCc2ccccc2)C(=O)/C=C/C=C\c2csc(n2)C(C)NC(=O)CC2(CC1)[S+]([O-])SC(=O)C2(C)O` (stereo not drawn) [Compound 119], 63%.
On the same count and under the same terms, the result for `CC1=CC(OC2CCCCO2)C(=NO)C=CC=Cc2csc(n2)C(C)N2C(=O)CC(C(C)(O)C(=O)SCc3oc(=O)oc3C)(CC1)[S+]2[O-]` (stereo not drawn) [Compound 125] reads 54%.

These data come from US5733924A, “DC 107 derivatives and treatment methods” (Kyowa Hakko Kogyo Co., Ltd., priority 1995, dated 1998).
